Paper PMC11378298 (ACS Chemical Neuroscience, 2024)

Legend:
[1] = target: CYP2D6 (Homo sapiens, UniProt P10635); settings: for CYP2D6 activity at 0.1 µM / CYP2D6 activity at 1 µM / CYP2D6 activity at 10 µM / CYP2D6 activity at 25 µM: ± SD
From the text: (§1) Interactions with cytochrome enzymes are significant contributors to drug–drug interactions (DDIs), a crucial concern for patients who are on multiple medications. We determined the compounds’ influence on the most important CYP isoforms 3A4, 2D6, and 2C9, using the CYP450 inhibition luminescence assay from Promega (for details see Figures S23–S25 and Table S11 in the SI).
(§2) All protocols used for the evaluation of drug-like properties (ADME-To parameters) were described in our previous works.[58],[89] Precoated PAMPA Plate System Gentest was obtained from Corning, (Tewksbury, MA, USA). The metabolic stability assay was performed on human liver microsomes (HLMs, Sigma-Aldrich, St. Louis, MO, USA). The assays with microsomes were supported by MetaSite 6.0.1 software (Molecular Discovery Ltd. Hertfordshire, UK). To predict potential drug–drug interactions (DDIs) the influence on CYP3A4, CYP2D6, and CYP2C9 were carried with use of respective P450-Glo kit (Promega, Madison, WI, USA). The luminescence signal and absorbance were measured by using a microplate reader EnSpire PerkinElmer (Waltham, MA, USA). The LC/MS/MS analyses used in PAMPA and the assays with use of HLMs were obtained on Waters ACQUITY TQD system (Waters, Milford, CT, USA). […] Statistical significances and IC50 values were calculated by Graph Pad Prism 9 software. […]

[2] = target: CYP3A4 (Homo sapiens, UniProt P08684); settings: for CYP3A4 activity at 0.1 µM / CYP3A4 activity at 1 µM / CYP3A4 activity at 10 µM / CYP3A4 activity at 25 µM: ± SD
From the text: as §1, §2

[3] = target: CYP2C9 (Homo sapiens, UniProt P11712); settings: for CYP2C9 activity at 0.1 µM / CYP2C9 activity at 1 µM / CYP2C9 activity at 10 µM / CYP2C9 activity at 25 µM: ± SD
From the text: as §1, §2

[4] = tested on: BV-2 cell line; test: IL-6 release in LPS-treated BV-2 cells (LANCE Ultra TR-FRET); format: cell-based, mouse; settings: compound 10 μM; LPS 100 ng/mL
Procedure: Cell viability was determined by Presto Blue assay after 24 h. (B) Effect of compounds 11, 34, and 36 (0.1, 1, 10 μM) on NO-release (%) in LPS-treated (100 ng/mL) BV-2 cell line. NO-release was measured using a fluorometric assay with 2,3-diaminonaphthalene (DAN). (C, D) Effects of compounds 11 and 36 (0.1, 1, 10 μM) on IL-6 and TNF-α release in LPS-treated (100 ng/mL) BV-2 cell line. The IL-6 and TNF-α levels were measured using LANCE Ultra TR-FRET Detection Kit (PerkinElmer). Statistical analysis was performed using GraphPad Prism 9.0.0. All values are expressed as mean with SD. Differences among groups were evaluated by one-way ANOVA followed by posthoc analysis (Dunnett’s multiple comparison tests) vs. control group (LPS on BV-2 cells and okadaic acid on HT-22 cells) and were considered statistically significant if p < 0.05 (*p < 0.05, **p < 0.01, ***p < 0.001, and ****p < 0.0001). […]
The IL-6 and TNF-α levels in the culture supernatants were measured using LANCE Ultra TR-FRET Detection Kit (PerkinElmer), according to manufacturer protocol. […] After 1 h of incubation of IL-6 and 3h for incubation of TNF-α in the dark, at 22 °C, the plates were read with an EnVision plate reader (PerkinElmer) with the excitation wavelength at 320 nm, the donor emission at 615 nm, and the acceptor emission at 660 nm. […]

[5] = tested on: HT-22 cells; test: Okadaic acid-induced hyperphosphorylation model, cell viability; format: cell-based, mouse; settings: for increase in cells' viability after okadaic acid: okadaic acid 400 nM 3 h, viability after 24 h
Procedure: Thus, it is used in a cell model of hyperphosphorylated tau-induced neurodegeneration.[53],[54] […] The test was performed on the HT-22 cell line treated with okadaic acid at the concentration of 400 nM and the compounds at the concentration of 0.1, 1, and 10 μM. Cell viability was measured by the PrestoBlue cell viability reagent.
Cell viability was determined by Presto Blue assay after 24 h. (B) Effect of compounds 11, 34, and 36 (0.1, 1, 10 μM) on NO-release (%) in LPS-treated (100 ng/mL) BV-2 cell line. NO-release was measured using a fluorometric assay with 2,3-diaminonaphthalene (DAN). (C, D) Effects of compounds 11 and 36 (0.1, 1, 10 μM) on IL-6 and TNF-α release in LPS-treated (100 ng/mL) BV-2 cell line. The IL-6 and TNF-α levels were measured using LANCE Ultra TR-FRET Detection Kit (PerkinElmer). Statistical analysis was performed using GraphPad Prism 9.0.0. All values are expressed as mean with SD. Differences among groups were evaluated by one-way ANOVA followed by posthoc analysis (Dunnett’s multiple comparison tests) vs. control group (LPS on BV-2 cells and okadaic acid on HT-22 cells) and were considered statistically significant if p < 0.05 (*p < 0.05, **p < 0.01, ***p < 0.001, and ****p < 0.0001).
HT-22 cells were treated with okadaic acid (Merck): 400 nM for 3 h. After this time, the 10, 1, and 0.1 μM of tested compounds or DMSO were added and incubated in the aseptic condition (37 °C, 5% CO2). Cell viability was determined by Presto Blue assay after 24 h.

Chain of CYP2C9 (P11712 whole entry): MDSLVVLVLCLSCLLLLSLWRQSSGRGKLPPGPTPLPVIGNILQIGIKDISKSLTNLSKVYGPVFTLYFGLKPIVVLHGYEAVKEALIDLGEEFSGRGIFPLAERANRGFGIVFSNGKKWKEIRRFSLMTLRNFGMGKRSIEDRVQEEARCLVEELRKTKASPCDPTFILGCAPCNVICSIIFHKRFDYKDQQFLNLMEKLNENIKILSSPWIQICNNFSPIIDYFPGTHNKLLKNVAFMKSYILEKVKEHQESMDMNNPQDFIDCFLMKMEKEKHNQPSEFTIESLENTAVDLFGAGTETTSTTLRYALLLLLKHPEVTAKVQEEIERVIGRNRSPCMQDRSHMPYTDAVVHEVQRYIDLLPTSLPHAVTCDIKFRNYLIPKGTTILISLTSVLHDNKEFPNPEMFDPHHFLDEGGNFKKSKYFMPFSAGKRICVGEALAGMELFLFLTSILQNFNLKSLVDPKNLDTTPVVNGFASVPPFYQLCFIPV
Chain of CYP3A4 (P08684 whole entry): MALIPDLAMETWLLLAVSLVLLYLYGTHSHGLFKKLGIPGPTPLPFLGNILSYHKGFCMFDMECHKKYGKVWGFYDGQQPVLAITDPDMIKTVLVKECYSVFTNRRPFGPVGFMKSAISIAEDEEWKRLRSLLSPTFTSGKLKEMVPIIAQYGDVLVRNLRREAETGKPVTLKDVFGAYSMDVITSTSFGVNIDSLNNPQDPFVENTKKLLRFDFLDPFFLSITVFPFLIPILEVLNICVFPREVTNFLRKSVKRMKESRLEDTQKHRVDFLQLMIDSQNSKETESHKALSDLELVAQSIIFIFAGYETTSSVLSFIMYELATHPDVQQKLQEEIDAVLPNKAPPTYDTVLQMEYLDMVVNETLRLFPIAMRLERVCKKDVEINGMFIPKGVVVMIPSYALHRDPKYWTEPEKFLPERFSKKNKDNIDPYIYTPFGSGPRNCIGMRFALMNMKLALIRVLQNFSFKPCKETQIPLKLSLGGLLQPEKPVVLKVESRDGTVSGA
Chain of CYP2D6 (P10635 whole entry, canonical isoform): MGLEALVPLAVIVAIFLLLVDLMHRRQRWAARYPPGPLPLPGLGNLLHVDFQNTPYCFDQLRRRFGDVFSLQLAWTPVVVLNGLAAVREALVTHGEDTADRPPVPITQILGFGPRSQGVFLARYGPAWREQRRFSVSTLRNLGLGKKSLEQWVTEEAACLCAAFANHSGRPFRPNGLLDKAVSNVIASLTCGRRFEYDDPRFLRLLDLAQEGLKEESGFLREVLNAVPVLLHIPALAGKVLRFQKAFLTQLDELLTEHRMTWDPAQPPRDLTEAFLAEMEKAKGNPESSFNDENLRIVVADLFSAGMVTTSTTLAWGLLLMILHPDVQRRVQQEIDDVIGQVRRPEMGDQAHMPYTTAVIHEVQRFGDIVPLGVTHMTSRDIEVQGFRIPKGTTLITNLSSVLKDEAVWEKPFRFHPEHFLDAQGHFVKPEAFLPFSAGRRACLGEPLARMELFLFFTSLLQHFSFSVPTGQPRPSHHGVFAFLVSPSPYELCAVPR

Compound | CYP2D6 activity at 0.1 µM [1] | CYP2D6 activity at 1 µM [1] | CYP2D6 activity at 10 µM [1] | CYP2D6 activity at 25 µM [1] | effect on CYP2D6 ([1]; any tested concentration) | effect on CYP3A4 [2] | CYP3A4 activity at 0.1 µM [2] | CYP3A4 activity at 1 µM [2] | CYP3A4 activity at 10 µM [2] | CYP3A4 activity at 25 µM [2] | effect on CYP2C9 [3] | CYP2C9 activity at 0.1 µM [3] | CYP2C9 activity at 1 µM [3] | CYP2C9 activity at 10 µM [3] | CYP2C9 activity at 25 µM [3] | IL-6 release [4] | increase in cells' viability after okadaic acid ([5]; compound 1 μM) | increase in cells' viability after okadaic acid ([5]; compound 10 μM) | interactions with CYP isoform 2C9 ([3]; up to 25 μM) | cell viability after okadaic acid treatment ([5]; concentration not stated)
NC(=O)N1CC=C(c2ccnc(NC(=O)C3CC3)c2)C1 [Compound 11, 3-(2-(Cyclopropanecarboxamido)pyridin-4-yl)-2,5-dihydro-1H-pyrrole-1-carboxamide] | 91.2 ± 1.7 % of control | 93.0 ± 6.0 % of control | 95.2 ± 6.2 % of control | 97.4 ± 14.8 % of control | no effect | inhibitory effect | 103.8 ± 5.9 % of control | 100.1 ± 17.6 % of control | 94.2 ± 17.5 % of control | 76.4 ± 2.9 % of control | inhibitory effect | 103.9 ± 7.0 % of control | 105.2 ± 7.4 % of control | 89.8 ± 4.7 % of control | 69.7 ±3.04 % of control | significantly reducing the release | statistically significant effect | statistically significant effect |  | 
O=C(Nc1cc(-c2ccc(-c3ncon3)s2)ccn1)C1CC1 [Compound 36, N-(4-(5-(1,2,4-Oxadiazol-3-yl)thiophen-2-yl)pyridin-2-yl)cyclopropanecarboxamide] | 98.4 ± 10.8 % of control | 98.1 ± 12.7 % of control | 100.4 ± 20.8 % of control | 102.8 ± 15.0 % of control |  | inhibitory effect | 104.8 ± 3.4 % of control | 103.6 ± 11.0 % of control | 84.6 ± 15.1 % of control | 65.3 ± 11.9 % of control | inhibitory effect | 109.5 ± 17.0 % of control | 114.1 ± 14.9 % of control | 95.2 ± 7.5 % of control | 59.8 ± 11.5 % of control | significantly reducing the release |  | statistically significant effect | lacked significant interactions | restored cell viability
